Values joined by “and” are separate entries in the source; they are usually repeats but may differ in a detail not shown here. Identical values can stand only once.
Tested on: 874868-142-R-J2-PDC complex spheroids, growth % test/control
Assay: Anticancer human tumor 874868-142-R-J2-PDC patient-derived head and neck squamous carcinoma cell line growth inhibition [CLK]
Details: for viability, T/C: stronger effect = lower value; active = viability on the fitted dose curve at most 10% of control; inactive = the rest
Method in brief: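 Patient-derived tumor cells grown as complex spheroids with HUVEC endothelial cells and mesenchymal stem cells, treated with drug combinations. Concentrations descend in half-log steps from near clinical Cmax, or from 10 microM if Cmax unknown.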

[1] = curve of first compound, second compound 0.0316 µM
[2] = curve of first compound, second compound 0.1 µM
[3] = curve of first compound, second compound 0.316 µM
[4] = curve of first compound, second compound 1 µM
[5] = curve of first compound, second compound 3.16 µM
[6] = curve of first compound, second compound 10 µM
[7] = second compound 0.0316 µM, first compound 0.0316 µM
[8] = second compound 0.0316 µM, first compound 0.1 µM
[9] = second compound 0.0316 µM, first compound 0.316 µM
[10] = second compound 0.0316 µM, first compound 1 µM
[11] = second compound 0.1 µM, first compound 0.0316 µM
[12] = second compound 0.1 µM, first compound 0.1 µM
[13] = second compound 0.1 µM, first compound 0.316 µM
[14] = second compound 0.1 µM, first compound 1 µM
[15] = second compound 0.316 µM, first compound 0.0316 µM
[16] = second compound 0.316 µM, first compound 0.1 µM
[17] = second compound 0.316 µM, first compound 0.316 µM
[18] = second compound 0.316 µM, first compound 1 µM
[19] = second compound 1 µM, first compound 0.0316 µM
[20] = second compound 1 µM, first compound 0.1 µM
[21] = second compound 1 µM, first compound 0.316 µM
[22] = second compound 1 µM, first compound 1 µM
[23] = second compound 3.16 µM, first compound 0.0316 µM
[24] = second compound 3.16 µM, first compound 0.1 µM
[25] = second compound 3.16 µM, first compound 0.316 µM
[26] = second compound 3.16 µM, first compound 1 µM
[27] = second compound 10 µM, first compound 0.0316 µM
[28] = second compound 10 µM, first compound 0.1 µM
[29] = second compound 10 µM, first compound 0.316 µM
[30] = second compound 10 µM, first compound 1 µM
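Note: spheroids exposed to the compounds for 7 days.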
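Throughout, for viability, T/C: 100% = DMSO vehicle control viability.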

CCN1CCN(Cc2ccc(Nc3ncc(F)c(-c4cc(F)c5nc(C)n(C(C)C)c5c4)n3)nc2)CC1 + CN1CCN(c2cc(C(=O)Nc3cc4cc(-c5cnn(C)c5)ccc4cn3)ccn2)CC1
< 3.16 nM: IC50 [3] | IC50 [4] | IC50 [5] | IC50 [6]
active: viability, T/C (second compound 1 µM, first compound 0.00316 µM) 0.58% | viability, T/C (second compound 1 µM, first compound 0.01 µM) 0.34% | viability, T/C [19] 0.43% | viability, T/C [20] 0.43% | viability, T/C [21] 0.48% | viability, T/C [22] 0.58% | viability, T/C (second compound 3.16 µM, first compound 0.00316 µM) 0.3% | viability, T/C (second compound 3.16 µM, first compound 0.01 µM) 2.83% | viability, T/C [23] 0.23% | viability, T/C [24] 0.83% | viability, T/C [25] 0.56% | viability, T/C [26] 1% | viability, T/C (second compound 10 µM, first compound 0.00316 µM) 0.7% | viability, T/C (second compound 10 µM, first compound 0.01 µM) 2.35% | viability, T/C [27] 0.16% | viability, T/C [28] 0.16% | viability, T/C [29] 0.18% | viability, T/C [30] 4.41%
> 1000 nM: IC50 [1] | IC50 [2]
inactive: viability, T/C (second compound 0.0316 µM, first compound 0.00316 µM) 82.8% | viability, T/C (second compound 0.0316 µM, first compound 0.01 µM) 65% | viability, T/C [7] 82.2% | viability, T/C [8] 89% | viability, T/C [9] 72% | viability, T/C [10] 110% | viability, T/C (second compound 0.1 µM, first compound 0.00316 µM) 85.4% | viability, T/C (second compound 0.1 µM, first compound 0.01 µM) 66.9% | viability, T/C [11] 54.9% | viability, T/C [12] 66.8% | viability, T/C [13] 62.5% | viability, T/C [14] 91% | viability, T/C (second compound 0.316 µM, first compound 0.00316 µM) 22.7% | viability, T/C (second compound 0.316 µM, first compound 0.01 µM) 22.2% | viability, T/C [15] 25.9% | viability, T/C [16] 23.1% | viability, T/C [17] 43.9% | viability, T/C [18] 49.6%

COc1cccc2c1C(=O)c1c(O)c3c(c(O)c1C2=O)CC(O)(C(=O)CO)CC3OC1CC(N)C(O)C(C)O1 (stereo not drawn)
active: viability, T/C (compound 1 µM) 3.91% and 6.75% | viability, T/C (compound 3.16 µM) 0.09% and 0.19% | viability, T/C (compound 10 µM) 0.19% and 0.2%
86.8 nM and 114 nM: IC50 (curve of compound)
inactive: viability, T/C (compound 0.0316 µM) 74.8% and 74.3% | viability, T/C (compound 0.1 µM) 46.2% and 52.2% | viability, T/C (compound 0.316 µM) 18.9% and 27.4%

NC(=O)C(=Cn1cnc(-c2cc(C(F)(F)F)cc(C(F)(F)F)c2)n1)c1cncnc1
active: viability, T/C (compound 0.949 µM) 4.77% and 4.05% | viability, T/C (compound 3 µM) 8.1% and 6.28%
inactive: viability, T/C (compound 0.00949 µM) 90.5% and 86% | viability, T/C (compound 0.03 µM) 72.8% and 48.9% | viability, T/C (compound 0.0949 µM) 43.8% and 30.9% | viability, T/C (compound 0.3 µM) 18.4% and 12%
73 nM and 31.1 nM: IC50 (curve of compound)

CC(=O)O[C@H]1C(=O)[C@@]2(C)[C@H]([C@H](OC(=O)c3ccccc3)[C@]3(O)C[C@H](OC(=O)[C@H](O)[C@@H](NC(=O)c4ccccc4)c4ccccc4)C(C)=C1C3(C)C)[C@]1(OC(C)=O)CO[C@@H]1C[C@@H]2O + CN1CCN(c2cc(C(=O)Nc3cc4cc(-c5cnn(C)c5)ccc4cn3)ccn2)CC1
inactive: viability, T/C [7] 26.6% | viability, T/C [8] 18.9% | viability, T/C [9] 19.1% | viability, T/C [10] 22% | viability, T/C (second compound 0.0316 µM, first compound 3.16 µM) 21.3% | viability, T/C (second compound 0.0316 µM, first compound 10 µM) 27.4% | viability, T/C [11] 28.1% | viability, T/C [12] 19.6% | viability, T/C [13] 20% | viability, T/C [14] 18.1% | viability, T/C (second compound 0.1 µM, first compound 3.16 µM) 14.7% | viability, T/C (second compound 0.1 µM, first compound 10 µM) 27.9% | viability, T/C [15] 13% | viability, T/C [16] 15.6% | viability, T/C [17] 15.3% | viability, T/C [18] 9.43% | viability, T/C (second compound 0.316 µM, first compound 3.16 µM) 17.7% | viability, T/C (second compound 0.316 µM, first compound 10 µM) 17.3%
< 31.6 nM: IC50 [1] | IC50 [2] | IC50 [3] | IC50 [4] | IC50 [5] | IC50 [6]
active: viability, T/C [19] 0.22% | viability, T/C [20] 0.23% | viability, T/C [21] 0.5% | viability, T/C [22] 0.59% | viability, T/C (second compound 1 µM, first compound 3.16 µM) 0.23% | viability, T/C (second compound 1 µM, first compound 10 µM) 0.27% | viability, T/C [23] 0.16% | viability, T/C [24] 0.16% | viability, T/C [25] 2.82% | viability, T/C [26] 0.21% | viability, T/C (second compound 3.16 µM, first compound 3.16 µM) 0.18% | viability, T/C (second compound 3.16 µM, first compound 10 µM) 0.15% | viability, T/C [27] 0.12% | viability, T/C [28] 0.18% | viability, T/C [29] 1.66% | viability, T/C [30] 0.18% | viability, T/C (second compound 10 µM, first compound 3.16 µM) 2.53% | viability, T/C (second compound 10 µM, first compound 10 µM) 1.6%

From PubChem BioAssay AID2060601 (Molecular Pharmacology Branch, DTP, NCI, 2025)
